Columns and labels:
TREK-1 = tested on: T1, TREK-1; assay: Outside-out and inside-out patch recordings of TREK-1; assay type: cell-based, human; conditions: +80 mV
T1 construct: expressed in transfected cells; host or cells: CHO cells, transient transfection
Procedure: All electrophysiological recordings were obtained using patch-clamp recordings in two different configurations: (1) whole cell for macroscopic current dose–response curves; and (2) outside-out and inside-out for macroscopic currents recordings.
All patch-clamp recordings were conducted 36–96 h after transfection with an Axopatch-200B amplifier (Molecular Devices) at room temperature (23–25 °C). The microelectrodes fashioned from 1.5 mm thin-walled borosilicate glass with filament were pulled from Flaming/Brown type micropipette puller (P-97; SUTTER INSTRUMENT) with the resistances of 3–7 MΩ (whole cell) or 7–15 MΩ (outside-out) when filled with a solution containing (in mM): 140 KCl, 2 MgCl2, 10 EGTA, 1 CaCl2, 10 HEPES (pH 7.3, adjusted with KOH). External solution contained (in mM): 150 NaCl, 5 KCl, 0.5 CaCl2, 1.2 MgCl2, 10 HEPES (pH 7.3, adjusted with NaOH). The current signals were filtered at 1 kHz and digitized at a 10 kHz sampling frequency by using DigiData 1440 A.
In the outside-out patch recordings and inside-out patch recordings, the inhibitor (10–30 μM TKDC) was applied via dish perfusion. The bath level was kept as low as possible to reduce noise. Currents were recorded at a pipette potential of + 80 mV. […]
mechanical force, lipids, or pH change)? A comprehensive survey would be nice, but even evaluating block +/- one activating stimulus would be a very useful piece of information to know for those interested in using this drug.
Response: We have tested the TKDC-induced inhibition of TREK-1 in addition to the mechanical force using outside-out patch. 10 μM TKDC was applied via dish perfusion. The bath level was kept as low as possible to reduce noise. Currents were recorded at a pipette potential of +80 mV. Mechanical stimulation (-7 mmHg) for patches was applied by suction for the outside-out configuration using a pressure monitor (PM 015D, World Precision Instruments) controlled by clampex 10.6 software. As […]
The main aim of this work is to reveal an allosteric ligand-binding site in the extracellular cap of K2P channels. […]

TREK-1 internalization = assay: Confocal microscopic analysis of channel internalization (co-localization with Rab5a); assay type: cell-based, CHO-K1 cells; conditions: 10 μM, 20 min, vs DMSO control
Procedure: In eight-well chamber (Thermo), CHO-K1 cells were co-transfected with PEGFP-N1-TREK1 and OFP-Rab5a. After 24 h, cells were treated with 10 μM TKDC for 20 min at room temperature and DMSO as control. At the end of incubation, cells were washed with PBS, fixed with 4% paraformaldehyde and washed with PBS. Images were taken at × 100 with scan zoom 1.74 using Leica SP8 and 3D reconstruction was done using Imaris software (Bitplane) and co-localization analysis was quantified using Imaris software. An automatic threshold of red and green channels was selected. The data represent images taken from 18 different areas (n = 18).

[1] = tested on: cell surface TREK-1 expression; assay: Flow cytometry analysis of TREK-1 cell membrane expression; assay type: cell-based, CHO-K1 cells; conditions: 10 μM, 20, 40 min and 1 h incubation
Procedure: CHO-K1 cells were transfected with pFLAG-TREK1 for 24 h. After washed with phosphate-buffered saline (PBS), the cells were disassociated with a non-enzyme cell dissociation solution (Sigma). After 10 μM TKDC incubation for 20, 40 min and 1 h at room temperature, cell surface TREK-1 expression in CHO-K1 cells was analyzed by flow cytometry. Transfected cells expressing FLAG-tagged TREK-1 were incubated with monoclonal ANTI-FLAG® M2-FITC antibody (Sigma). Data were collected with a flow cytometer (FACS Calibur, BD Bioscience) and analyzed with Flow Jo.

CS(=O)(=O)N(CC(=O)N1CCc2ccccc2C1)c1ccc(Cl)cc1 [TKDC, N-(4-cholorphenyl)-N-(2-(3,4-dihydrosioquinolin-2(1H)-yl)-2-oxoethyl)methanesulfonamide]
inhibition of TREK-1, outside-out recording (TREK-1; application to the extracellular face, 10 and 30 μM): consistently inhibited TREK-1
inhibition of TREK-1, inside-out recording (TREK-1; application to the intracellular side, 10 and 30 μM): did not significantly inhibit TREK-1 activity
effect on activation of TREK-1 by mechanical force (TREK-1; outside-out patch, 10 μM, -7 mmHg): suppressed the activation of TREK-1 by mechanical force
TREK-1 internalization (co-localization with Rab5a) (TREK-1 internalization): did not significantly increase TREK-1 internalization
cell surface signal of TREK-1 positive cells [1]: did not obviously lose the cell surface signal
